# Like-named read-outs stand apart in the source and are kept apart here.
# Legend:
# [1] = Franz-type diffusion cell skin permeation of CBD from BTX 1503 5% Solution; format: in vitro ADME; details: 48 hours; equivalent of ng/g of tissue
# Experimental: Dermatomed skin from a single donor was mounted in a Franz-type diffusion cell (0.55 cm^2 receptor fluid exposure surface area) and dosed with 5 ul of 2-[3-methyl-6-(1-methylethenyl)-2-cyclohexen-1-yl]-5-pentyl-1,3-benzenediol (CBD), BTX 1503 5% Solution, formulated in an mixture of a volatile solvent (hexylmethyldisiloxane/polymethylsiloxane—93% w/w), and residual solvent (arlamol E—2% w/w) at a concentration of 5.0% (w/w; 35.5 mg/ml). Following dosing, receptor phase samples were collected at 4, 10, 24 and 48 hours; after which the study was terminated.
# The residual formulation was removed by tape stripping and the epidermis and dermis separated by blunt dissection. The levels of CBD in the epidermis, dermis, and receptor fluid samples were then analyzed using a bioanalytical method with LC-MS/MS detection.
# skin of minipigs = experiment: 28-day study in minipigs: dermal tolerability and exposure; format: in vivo; details: no observed effect in minipigs
# Experimental: This dose level is well below that tested and shown to be well-tolerated in a 28-day study in minipigs. Specifically, the NOAEL for dermal tolerability of BTX 1503 5% (w/w) on the skin of minipigs was 3.0 mg/cm^2/day (150 mg/kg/day), which is ~7.5 times the daily dose delivered in this study. In addition, based on the ratio of the mean Cmax observed in the 28-day minipig study to the mean Cmax in the 3 mL BID cohort in the Phase 1 a healthy volunteer study, there was >300 times the level of CBD, with no observed effect, in the minipigs.
# [2] = test system: immortalized human sebocytes; details: cited from earlier work
# [3] = Healthy volunteer study of single and multiple-dose BTX 1503 5% Solution (BTX.2017.001): pharmacokinetics; format: in vivo, human (healthy volunteers); details: for Tmax: Day 1; for Cmax: topical or ocular, topical, Day 1, plasma CBD, read-out: mean Cmax after the first dose
# Experimental: The pharmacokinetics (PK) of single and multiple-dose administration of BTX 1503 5% Solution were evaluated in a healthy volunteer study. In this study, BTX 1503 5% Solution was applied as a single dose either QD or BID (12 hrs apart) on Day 1 followed by a 6-day washout period, then either QD or BID for 14 days (Day 8 to Day 21). Five subjects were enrolled in each cohort and doses were escalated for each sequential cohort enrolled with the following doses. • Cohort 1: 37.5 mg CBD/day or 0.066 mg/cm^2/day applied as 1 mL of BTX 1503 5% (w/w) QD • Cohort 2: 75 mg CBD/day or 0.133 mg/cm^2/day applied as 1 mL BTX 1503 5% (w/w) BID • Cohort 3: 112.5 mg CBD/day or 0.199 mg/cm^2/day applied as 3 mL of BTX 1503 5% (w/w) QD • Cohort 4: 225 mg CBD/day or 0.398 mg/cm^2/day applied as 3 mL of BTX 1503 5% (w/w) BID Area of application assumed to be 565 cm^2 (i.e., on the face), which is reported by the European Union Scientific Committee on Consumer Safety (SCCS) to be half of the surface area for a female head (SCCS Notes of Guidance for the Testing of Cosmetic Substances and Their Safety Evaluation, 8th edition, 2012; Table 2).
# Blood samples were taken for PK assessments on Day 1 (Baseline) at pre-dose (15 mins before dosing), 30, 60 and 90 mins and 2, 2.5, 3, 4, 6, 8 and 12 hrs, and 24 hrs after the first single dose. For participants that received BID dosing, samples were also taken at 30, 60 and 90 mins and 2, 2.5, 3, 4, 6, and 8 hrs after the second dose on Day 1.
# During the multiple dose (14-day) phase, trough levels were obtained before the morning application on Day 15. On Day 21, blood samples were taken for PK assessments at pre-dose (15 mins before dosing), 30, 60 and 90 mins and 2, 2.5, 3, 4, 6, 8 and 12 hrs, 24 hrs and 48 hrs after the morning dose. For participants that received BID dosing, samples were also be taken at 30, 60 and 90 mins and 2, 2.5, 3, 4, 6, and 8 hrs after the second dose on Day 21. A sample was obtained on Day 23, 48 hrs after the last morning dose.
# rats = details: injected; cited from earlier work
# [4] = biological target: human vanilloid receptor type 1 (VR1) (Homo sapiens, UniProt Q8NER1); details: in vitro; cited from earlier work
# [5] = Open-label study in patients with acne vulgaris: study drug (CBD) plasma levels; format: in vivo, human; details: throughout the study, 225 mg CBD/day topical
# Description: Subjects returned to the clinic on Day 14 for vital signs, cutaneous tolerability assessments, and a blood draw for study drug plasma levels. Subjects were also queried for adverse events (AEs) and changes in concomitant medications. Diaries and study drug were returned and reviewed for compliance. In addition, the subject applied their morning dose of study drug during the visit for the clinical site to confirm correct application techniques. Another 14 days of study drug were dispensed along with the diary for the last two weeks of study drug treatment. […]
# Safety was the primary outcome measure. The safety outcomes were measured through assessment of: • AEs monitored from time of consent through the end of study. • Cutaneous tolerability (erythema, scaling, dryness, burning/stinging, and irritant/allergic contact dermatitis) collected at Baseline, Day 14, Day 28, and Day 35 and graded using the following scale: 0, None; 1, Slight; 2, Moderate; 3, Severe. • Vital signs (temperature, blood pressure, and pulse) obtained at Baseline, Day 14, Day 28 and Day 35. • Complete blood count (CBC), chemistry, and urinalysis at Baseline and at Day 28. Blood levels of study drug will be measured at Baseline and prior to dosing (trough level) on Day 14, Day 28, and Day 35. […]
# sensitized guinea-pigs = details: intravenous administration; cited from earlier work
# human vanilloid receptor type 1 (VR1), sequence (Q8NER1 whole entry): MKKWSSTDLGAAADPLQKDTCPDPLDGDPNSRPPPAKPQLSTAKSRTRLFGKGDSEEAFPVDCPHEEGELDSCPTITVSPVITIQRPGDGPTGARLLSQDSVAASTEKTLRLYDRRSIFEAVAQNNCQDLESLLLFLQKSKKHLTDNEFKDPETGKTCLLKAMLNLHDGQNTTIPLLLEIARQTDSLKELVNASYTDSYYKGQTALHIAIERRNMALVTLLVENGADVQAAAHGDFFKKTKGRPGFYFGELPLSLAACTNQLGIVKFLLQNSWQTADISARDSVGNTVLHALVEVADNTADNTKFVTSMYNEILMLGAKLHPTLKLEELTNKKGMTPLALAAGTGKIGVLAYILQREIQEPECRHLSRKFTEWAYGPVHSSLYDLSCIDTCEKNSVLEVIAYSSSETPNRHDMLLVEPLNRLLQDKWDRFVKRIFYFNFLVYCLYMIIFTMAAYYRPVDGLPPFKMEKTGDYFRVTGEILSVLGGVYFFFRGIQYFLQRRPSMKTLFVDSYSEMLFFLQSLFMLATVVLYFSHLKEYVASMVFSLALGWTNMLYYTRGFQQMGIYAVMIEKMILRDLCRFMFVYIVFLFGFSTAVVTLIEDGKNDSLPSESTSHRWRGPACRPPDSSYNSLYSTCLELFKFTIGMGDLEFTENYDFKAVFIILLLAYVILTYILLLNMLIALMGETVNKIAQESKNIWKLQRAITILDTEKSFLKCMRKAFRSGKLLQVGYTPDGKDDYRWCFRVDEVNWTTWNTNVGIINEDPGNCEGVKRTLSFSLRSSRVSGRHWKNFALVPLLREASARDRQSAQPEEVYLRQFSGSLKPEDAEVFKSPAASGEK
smiles,measurement,setting,value
"C=C(C)C1CCC(C)=CC1c1c(O)cc(CCCCC)cc1O (centres unmarked) [CBD, 2-[3-methyl-6-(1-methylethenyl)-2-cyclohexen-1-yl]-5-pentyl-1,3-benzenediol]",dermis concentration,[1],"~ 1,933 ng/mL"
same,ratio of mean Cmax in 28-day minipig study to mean Cmax in 3 mL BID healthy volunteer cohort,skin of minipigs,> 300 times
same,effects on sebocytes,[2],"lipostatic, anti-proliferative, and anti-inflammatory effects"
same,mean pre-dose level on Day 21,[3]; Cohort 1,0.545 ng/mL
same,mean pre-dose level on Day 21,[3]; Cohort 2,0.770 ng/mL
same,mean pre-dose level on Day 21,[3]; Cohort 3,0.715 ng/mL
same,mean pre-dose level on Day 21,[3]; Cohort 4,1.553 ng/mL
same,concentration at 15 study day,"[3]; human, in vivo, 75 mg CBD/day, Cohort 2, 75 mg CBD/day, multiple dose phase, read-out: mean CBD trough level on Day 15",0.781 ng/mL
same,concentration at 15 study day,"[3]; human, in vivo, 112.5 mg CBD/day, Cohort 3, 112.5 mg CBD/day, multiple dose phase, read-out: mean CBD trough level on Day 15",0.525 ng/mL
same,concentration at 15 study day,"[3]; human, in vivo, 225 mg CBD/day, Cohort 4, 225 mg CBD/day, multiple dose phase, all subjects, read-out: mean CBD trough level on Day 15",2.11 ng/mL
same,concentration at 15 study day,"[3]; human, in vivo, 225 mg CBD/day, Cohort 4, one outlier, read-out: CBD trough level on Day 15, outlier subject",5.99 ng/mL
same,concentration at 15 study day,"[3]; human, in vivo, 225 mg CBD/day, Cohort 4, without the outlier subject, read-out: mean CBD trough level on Day 15",1.16 ng/mL
same,Tmax,"[3]; human, in vivo, after BID dosing",18 to 20 h
same,Tmax,"[3]; human, in vivo, after QD dosing",12 h
same,concentration at 7 days,"[3]; human, in vivo, all cohorts, study Day 8, seven days after initial dosing, read-out: Levels of CBD (below the limits of quantitation)",< 0.2 ng/mL
same,Cmax,"[3]; human, in vivo, Cohort 1: 37.5 mg CBD/day, 1 mL BTX 1503 5% QD",0.309 ng/mL
same,Cmax,"[3]; human, in vivo, Cohort 2: 75 mg CBD/day, 1 mL BTX 1503 5% BID",0.562 ng/mL
same,Cmax,"[3]; human, in vivo, Cohort 3: 112.5 mg CBD/day, 3 mL BTX 1503 5% QD",0.626 ng/mL
same,Cmax,"[3]; human, in vivo, Cohort 4: 225 mg CBD/day, 3 mL BTX 1503 5% BID",0.876 ng/mL
same,effect on cardiac inflammation,rats,attenuated cardiac inflammation
same,effect on VR1,[4],stimulate
same,Study drug (CBD) plasma levels,[5],low
same,effect on airway obstruction,sensitized guinea-pigs,reduced airway obstruction

# Reference: US20260272850A1, “Cannabinoid Dosing Regime for Acne” (priority 2018, published 2026)
